Source: paper PMC11762957, “Rescue of Mutant CFTR Channel Activity by Investigational Co-Potentiator Therapy” (Biomedicines, 2025)

Tests used:
Assay type in all cases: cell-based
p.Arg334Trp-CFTR = target: T1, p.Arg334Trp-CFTR (Homo sapiens, UniProt P13569, R334W); experiment: Micro-Ussing chamber measurements, polarized CFBE41o- monolayers expressing p.Arg334Trp-CFTR; settings: after Fsk 0.128 μM
T1 construct: expressed in transfected cells
Procedure: CFBE41o^− cells expressing p.Arg334Trp-CFTR were seeded onto collagen IV-coated Snap-well filter inserts (#734-1646, Corning, New York, NJ, USA) to establish polarized monolayers. When the transepithelial electrical resistance of cells was ≥1000 Ω·cm^2, micro-Ussing chambers were mounted to measure transepithelial voltage (Vte) and transepithelial resistance (Rte), as noted before. Briefly, after the equilibration period, baseline values were recorded and compounds were added sequentially: Fsk (0.128 μM), test compound(s), and Inh-172 (30 μM). Recorded Vte and Rte were used to calculate the equivalent short-circuit current (Isceq) using Ohm’s law: Isc = Vte/Rte.
Next, we validated the data obtained by the HS-YFP assay by measuring short-circuit currents in the polarized monolayers of CFBE41o^− cells expressing p.Arg334Trp-CFTR to assess the alterations in the CFTR-mediated Cl^− current. Upon the activation of the cAMP-dependent CFTR-mediated Cl^− transport by Fsk, there was a small lumen-negative response, indicating the residual function of p.Arg334Trp-CFTR (Figure 3A–F).

p.Ser549Arg-CFTR = target: T2, p.Ser549Arg-CFTR (Homo sapiens, UniProt P13569, S549R); experiment: HS-YFP assay, CFBE41o- cells transiently transfected with p.Ser549Arg-CFTR; settings: c.1645A>C or c.1647T>G, Fsk 5 μM
T2 construct: expressed in transfected cells; host or cells: CFBE41o- cells stably expressing HS-YFP, transient transfection of pcDNA5-CFTR
Procedure: (§1) Site-directed mutagenesis was performed using KOD HOT start DNA polymerase (#71086-3, Sigma-Aldrich, St. Louis, MO, USA), according to manufacturer’s instructions, to insert variants under study (c.613C>T or p.Pro205Ser; c.1645A>C or p.Ser549Arg; c.1647T>G or p.Ser549Arg; c.1652G>A or p.Gly551Asp; c.2834C>T or p.Ser945Leu; and c.4046G>A or p.Gly1349Asp) into CFTR cDNA cloned in the pcDNA5 expression vector. After confirmation by Sanger sequencing, CFBE41o^− cells expressing HS-YFP seeded onto 96-well plates were transfected with 0.1 µg per well of the indicated plasmid. Lipofectamine 3000 (#L3000015, ThermoFischer Scientific, Waltham, MA, USA) was used as the transfection agent diluted in Opti-MEM reduced serum medium (#31985070, ThermoFischer Scientific, Waltham, MA, USA) according to manufacturer’s instructions.
(§2) CFTR activity was determined by the HS-YFP microfluorimetric assay (described in detail in previous studies) using CFBE41o^− cells expressing HS-YFP together with stably expressed p.Arg334Trp-CFTR or transiently transfected with CFTR cDNA (variants p.Pro205Ser, p.Ser549Arg, p.Gly551Asp, p.Ser945Leu, and p.Gly1349Asp) cloned into pcDNA5. […] Thereafter, cells were transferred to a microplate reader (Tecan Infinite 200 Pro) equipped with high-quality excitation (485 ± 20 nm) and emission (535 ± 25 nm) filters for YFP. Each reading consisted of a continuous 14 s fluorescence recording with 2 s before and 12 s after injection of 165 μL of an iodide-containing solution (PBS with Cl^− replaced by I^−; final I^− concentration: 100 mM). Data were normalized to the initial background-subtracted fluorescence. […]
(§3) As CFTR variants with similar defect(s) may respond differently to the same treatment(s), we assessed whether LSO-24 or its derivative LSO-150, alone or in combination(s), could rescue CFTR activity for other variants with gating/conductance defects. […] After 24 h, the cells were acutely stimulated with Fsk plus test compound(s), and the cell fluorescence was recorded before and after the addition of an I^−-containing solution. […]

p.Gly551Asp-CFTR = target: T3, p.Gly551Asp-CFTR (Homo sapiens, UniProt P13569, G551D); experiment: HS-YFP assay, CFBE41o- cells transiently transfected with p.Gly551Asp-CFTR; settings: LSO-24 5 μM, LSO-150 3 μM, VX-770 1 μM, ABBV-3067 10 μM, Fsk 5 μM
T3 construct: expressed in transfected cells; host or cells: CFBE41o- cells stably expressing HS-YFP, transient transfection of pcDNA5-CFTR
Procedure: as §1, §2, §3

p.Ser945Leu-CFTR = target: T4, p.Ser945Leu-CFTR (Homo sapiens, UniProt P13569, S945L); experiment: HS-YFP assay, CFBE41o- cells transiently transfected with p.Ser945Leu-CFTR; settings: LSO-24 5 μM, LSO-150 3 μM, Fsk 5 μM
T4 construct: expressed in transfected cells; host or cells: CFBE41o- cells stably expressing HS-YFP, transient transfection of pcDNA5-CFTR
Procedure: as §1, with “Lipofectamine 3000 (#L3000015, ThermoFischer Scientific, Waltham, MA, USA) was used as the transfection agent diluted in Opti-MEM reduced serum medium (#31985070, ThermoFischer Scientific, Waltham, MA, USA) according to manufacturer’s instructions.” left out
as §2

p.Gly1349Asp-CFTR = target: T5, p.Gly1349Asp-CFTR (Homo sapiens, UniProt P13569, G1349D); experiment: HS-YFP assay, CFBE41o- cells transiently transfected with p.Gly1349Asp-CFTR; settings: Fsk 5 μM
T5 construct: expressed in transfected cells; host or cells: CFBE41o- cells stably expressing HS-YFP, transient transfection of pcDNA5-CFTR
Procedure: as §1
CFTR activity was determined by the HS-YFP microfluorimetric assay (described in detail in previous studies) using CFBE41o^− cells expressing HS-YFP together with stably expressed p.Arg334Trp-CFTR or transiently transfected with CFTR cDNA (variants p.Pro205Ser, p.Ser549Arg, p.Gly551Asp, p.Ser945Leu, and p.Gly1349Asp) cloned into pcDNA5. Briefly, cells were washed with phosphate-buffered saline (PBS; in mM: 137 NaCl, 2.7 KCl, 8.1 Na2HPO4, 1.5 KH2PO4, 1 CaCl2, and 0.5 MgCl2) and then incubated for 30 min at 37 °C with 60 μL of PBS plus Fsk (5 μM) and test compound(s) to stimulate CFTR channels. DMSO (vehicle) and VX-770 (1 μM) were used as negative and positive controls, respectively. All conditions were performed in triplicate on each plate. Thereafter, cells were transferred to a microplate reader (Tecan Infinite 200 Pro) equipped with high-quality excitation (485 ± 20 nm) and emission (535 ± 25 nm) filters for YFP. Each reading consisted of a continuous 14 s fluorescence recording with 2 s before and 12 s after injection of 165 μL of an iodide-containing solution (PBS with Cl^− replaced by I^−; final I^− concentration: 100 mM). Data were normalized to the initial background-subtracted fluorescence. To determine the I^− influx rate, the final 11 s of the data for each well were fitted with an exponential function to extrapolate the initial slope (dF/dt).
as §3

T2 sequence (P13569 whole entry S549R): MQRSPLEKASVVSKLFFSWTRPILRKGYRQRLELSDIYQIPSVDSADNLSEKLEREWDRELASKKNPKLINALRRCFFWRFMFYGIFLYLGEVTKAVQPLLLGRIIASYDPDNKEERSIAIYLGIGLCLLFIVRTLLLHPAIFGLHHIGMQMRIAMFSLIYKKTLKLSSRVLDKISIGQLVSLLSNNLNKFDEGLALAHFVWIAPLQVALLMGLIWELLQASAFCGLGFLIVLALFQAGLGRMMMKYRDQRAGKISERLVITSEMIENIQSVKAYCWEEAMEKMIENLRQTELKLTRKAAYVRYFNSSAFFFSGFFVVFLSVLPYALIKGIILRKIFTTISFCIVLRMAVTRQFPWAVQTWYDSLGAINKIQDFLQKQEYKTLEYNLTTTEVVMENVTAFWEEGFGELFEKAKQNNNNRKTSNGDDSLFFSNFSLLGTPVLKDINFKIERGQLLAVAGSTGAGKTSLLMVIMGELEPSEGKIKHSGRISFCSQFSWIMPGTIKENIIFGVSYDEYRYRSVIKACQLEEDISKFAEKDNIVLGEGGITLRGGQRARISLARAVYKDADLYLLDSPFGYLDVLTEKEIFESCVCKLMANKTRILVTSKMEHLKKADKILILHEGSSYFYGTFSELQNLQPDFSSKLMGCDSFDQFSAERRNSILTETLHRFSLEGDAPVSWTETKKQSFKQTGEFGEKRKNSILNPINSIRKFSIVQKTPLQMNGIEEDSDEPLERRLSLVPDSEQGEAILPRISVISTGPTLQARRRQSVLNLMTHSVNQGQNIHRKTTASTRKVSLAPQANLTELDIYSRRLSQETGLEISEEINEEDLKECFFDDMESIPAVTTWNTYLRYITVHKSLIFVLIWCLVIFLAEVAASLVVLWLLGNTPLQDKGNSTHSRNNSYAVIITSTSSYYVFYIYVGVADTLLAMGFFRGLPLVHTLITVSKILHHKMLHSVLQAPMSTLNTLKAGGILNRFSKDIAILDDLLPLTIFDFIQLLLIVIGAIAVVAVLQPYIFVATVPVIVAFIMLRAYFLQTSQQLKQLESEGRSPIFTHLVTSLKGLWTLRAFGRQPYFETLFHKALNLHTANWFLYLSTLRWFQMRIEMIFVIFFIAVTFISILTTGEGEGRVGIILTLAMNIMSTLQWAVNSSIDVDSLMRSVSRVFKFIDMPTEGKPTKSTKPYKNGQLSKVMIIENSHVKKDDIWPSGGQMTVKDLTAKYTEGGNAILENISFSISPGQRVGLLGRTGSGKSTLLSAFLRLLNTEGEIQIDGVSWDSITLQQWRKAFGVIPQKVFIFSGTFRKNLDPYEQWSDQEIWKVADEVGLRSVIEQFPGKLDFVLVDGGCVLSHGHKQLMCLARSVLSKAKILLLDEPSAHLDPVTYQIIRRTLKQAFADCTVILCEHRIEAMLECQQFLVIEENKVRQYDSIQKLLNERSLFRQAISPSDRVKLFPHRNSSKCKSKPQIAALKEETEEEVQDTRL
T5 sequence (P13569 whole entry G1349D): as the sequence (P13569 whole entry S549R) above, with R549S, G1349D counted along it
T1 sequence (P13569 whole entry R334W): as the sequence (P13569 whole entry S549R) above, with R334W, R549S counted along it
T3 sequence (P13569 whole entry G551D): as the sequence (P13569 whole entry S549R) above, with R549S, G551D counted along it
T4 sequence (P13569 whole entry S945L): as the sequence (P13569 whole entry S549R) above, with R549S, S945L counted along it

Isceq, co-administration with VX-770 (p.Arg334Trp-CFTR; VX-770 3 μM + LSO-150 3 μM or LSO-153 5 μM, vs single potentiator): further response
Isceq (equivalent short-circuit current), single potentiator (p.Arg334Trp-CFTR; acute, LSO-150 3 μM, LSO-153 5 μM, VX-770 3 μM, vs DMSO): increase in Isceq
Net effect with co-administration of ABBV-3067 (p.Ser549Arg-CFTR; + ABBV-3067 10 μM): increased
Net effect with co-administration of VX-770 (p.Ser549Arg-CFTR; + VX-770 1 μM): increased
CFTR activity (fluorescence quenching rate), single compound (p.Ser549Arg-CFTR; LSO-24 5 μM, LSO-150 3 μM): increased CFTR activity
CFTR activity (fluorescence quenching rate), single compound (p.Gly551Asp-CFTR): increased CFTR activity
CFTR activity (fluorescence quenching rate), single compound (p.Ser945Leu-CFTR): increased CFTR activity
Fluorescence quenching rate, effect in combination(s) with VX-770 or ABBV-3067 (p.Gly1349Asp-CFTR; LSO-24 5 μM or LSO-150 3 μM added to VX-770 1 μM or ABBV-3067 10 μM): no effect
Fluorescence quenching rate, single compound (p.Gly1349Asp-CFTR; LSO-24 5 μM, LSO-150 3 μM, VX-770 1 μM, ABBV-3067 10 μM): no effect
Structure (SMILES): CCOC(=O)c1ccc(-n2cc(C(O)c3ccc(Br)cc3)nn2)cc1 (stereo not drawn) [LSO-150]
